Data as given in patent publication US5348956A, “Substituted cyclopropylamino-1,3,5-triazines” (UCB S.A., priority 1991, dated 1994).
Where a name gives a salt, the structure may show the parent alone. Read-outs that look alike come from different tables or passages of the source.

Tests used:
[1] = tested on: anaphylactic release of histamine, guinea-pig lung sections; experiment: inhibition of the anaphylactic release of histamine (proper effect); type: cell-based, Dunkin-Hartley guinea-pigs; conditions: Cavia porcellus, in vitro, read-out: Minimum inhibitory dose (MID)
Protocol: (§1) Dunkin-Hartley guinea-pigs which are first passively sensitized by an intravenous injection of 1 ml of isologous antiovalbumin serum are used. Twenty-four hours after the injection, the lungs are then perfused with a Tyrode buffer to evacuate the blood, and then removed and cut into sections of 1 mm. These sections are divided up into test tubes (3 sections per tube) to give 10 experimental groups of lung sections per guinea-pig. A "positive" control group of lung sections is stimulated by addition of an ovalbumin solution (0.1 mg/ml) to induce the anaphylactic release of histamine and serves to determine the maximum amount of histamine (100%) which can be released. A "negative" control group which is not stimulated by ovalbumin serves to determine the naturally released amount of histamine (spontaneous release). In three other groups, the lung sections are incubated at 37° C. for 30 minutes in the ovalbumin solution in the presence of three different doses of the compound to be tested (one dose per group). […] At this dose, isoprenaline inhibits the release of histamine by 30 to 40%, which is verified on a control group treated only with isoprenaline alone at this dose. In addition, a supplementary control group which is not stimulated by ovalbumin is used to detect a possible spontaneous release of histamine by the highest dose of the compound tested. In each group, the histamine released in the incubation medium is measured by spectrofluorometry (D. P. EVANS et al., Life Sci., 12, (1973), 327-336).

toxicity, Irwin's test = type: in vivo; conditions: i.p.; death of two animals out of three within 48 hours
Protocol: Progressive doses of the compound to be tested are administered intraperitoneally to groups of three mice until the lethal dose is reached (dose which causes the death of two animals out of three within 48 hours).

serotonergic activity = experiment: "wet dog shake" (WDS) behavior, serotonergic activity; type: in vivo, male Sprague-Dawley rats
Protocol: A decrease in serotonergic activity has been correlated with the occurrence of affective disorders, such as depression and anxiety. […] The test is carried out in the morning on male Sprague-Dawley rats (±180 g), divided the previous day into groups of 8 animals in residence cages. The cage used for the tests is a transparent enclosure of 12×24×30 cm in height, the floor of which is covered with a layer of sand. The compounds to be tested, dissolved either in physiological salt solution or in a citrate buffer of pH 5, are administered intraperitoneally in a different dose for each group treated. The control groups receive an intraperitoneal injection of the same vehicle (either physiological salt solution or citrate buffer). […] The mean values of the results are calculated and analyzed statistically by the Mann-Whitney method. The mean values of the number of shakes obtained for the compounds according to the invention administered intraperitoneally at the doses indicated (in mg/kg) are given in Table V below.

[2] = tested on: anaphylactic release of histamine, guinea-pig lung sections; experiment: potentiation of the inhibition of anaphylactic histamine release by isoprenaline; type: cell-based, Dunkin-Hartley guinea-pigs; conditions: with isoprenaline 10^-7 mole per liter
Protocol: as §1

[3] = tested on: bronchospasm induced by histamine; experiment: bronchospasmolytic activity (Konzett and Roessler), bronchospasm induced by histamine; type: in vivo, Dunkin-Hartley guinea-pig; conditions: Cavia porcellus; intravenous; histamine-induced bronchospasm; read-out: Doses (ID50), Histamine
Protocol: (§2) This activity was measured in the Dunkin-Hartley guinea-pig by the method of H. KONZETT and […] (Naunyn Schmiedebergs Arch. exp. Path. […] The anesthetized (urethane) and curarized (gallamine) guinea-pig is placed under assisted respiration. The endotracheal pressure is recorded. […] The compound to be tested is also administered intravenously two minutes before the administration of the spasmogen and then in 3 to 4 cumulative doses in increasing amounts at intervals of 15 minutes. Six animals per compound to be tested and per spasmogen are used.

[4] = tested on: bronchospasm induced by serotonin; experiment: bronchospasmolytic activity (Konzett and Roessler), bronchospasm induced by serotonin; type: in vivo, Dunkin-Hartley guinea-pig; conditions: Cavia porcellus; intravenous; serotonin-induced bronchospasm; read-out: Doses (ID50), Serotonin
Protocol: as §2

[5] = tested on: plantar edema induced by immune complexes; experiment: "reverse passive Arthus" (RPA) test, anti-inflammatory and anti-edema activity; type: in vivo, Sprague-Dawley rat; conditions: Rattus norvegicus, intravenous
Protocol: The reaction between a soluble antigen and antibodies in the organism may lead to an acute inflammatory reaction accompanied by release of histamine, modification of vascular permeability and formation of a localized edema. […] To this end, the Arthus reaction is induced by subplantar administration of 0.1 ml of heterologous antivalbumin reaginic serum into the right hind paw and by simultaneous intravenous injection of 1 ml/kg ovalbumin (25 mg/ml). The compound to be tested is administered intravenously 30 seconds before induction of the Arthus reaction, in a least 3 different doses. A group of 6 rats is used per dose of compound to be tested. The volume of the paw is measured by plethysmometry before the Arthus reaction and 3 to 5 hours after induction of the Arthus reaction, both in the control animals and in the treated animals. The effect of a compound on the reduction in the edema for each dose and at each measurement time (3 hours and 5 hours) is expressed in % of the edema observed in the control animals. The doses of the compounds (ID30 in μmole/kg) which inhibit by 30%, on average over all the animals, the volume of the edema observed in the control animals are given in Table VII below.

[6] = tested on: bronchospasm induced by acetylcholine; experiment: bronchospasmolytic activity (Konzett and Roessler), bronchospasm induced by acetylcholine; type: in vivo, Dunkin-Hartley guinea-pig; conditions: Cavia porcellus; intravenous; acetylcholine-induced bronchospasm; read-out: Doses (ID50), Acetylcholine
Protocol: as §2

[7] = tested on: longitudinal muscles of the ileum contracted by histamine; experiment: potentiation of the myorelaxing effect of isoprenaline on the ileum; type: cell-based, Dunkin-Hartley guinea-pigs; conditions: with isoprenaline 10^-7 mole/l; histamine 3.2 μmoles/l
Protocol: (cf. R. A. TURNER, "Screening Methods in Pharmacology", Ed. Acad. Press, San Diego, 1965, chapter IV, pages 43-47). […] Inhibition cycle: When the successive contractions induced by the histamine injections have become reproducible, the compound to be tested is injected immediately after the second wash. The contraction induced by the following injection of histamine is measured and compared with the average of the three preceding contractions caused by the repeated injections of histamine (control contractions). From the result obtained, the percentage inhibition of the contraction is calculated. Several cycles of histamine injection are then performed again, until the contractions of the muscle become reproducible again; the muscle is then ready for testing of another compound. The potentiating effect of a compound is measured in the course of a so-called "potentiation" cycle, which comprises three successive inhibition cycles. […] In the course of the second inhibition cycle, the percentage inhibition of the contraction obtained with the compound to be tested, injected alone at a given dose, is determined. In the third inhibition cycle, isoprenaline and the compound to be tested are injected simultaneously, and the percentage inhibition of the contraction is calculated for the dose used of the compound tested. The same experiments are repeated for each of the doses of the compounds tested.

[8] = 3 hours after induction of the Arthus reaction, read-out: Dose (ID30), 3 hours
[9] = 5 hours after induction of the Arthus reaction, read-out: Dose (ID30), 5 hours

## C1CN(c2nc(NC3CC3)nc(C3CC3)n2)CS1 [Compound 21, 2-Cyclopropyl-4-cyclopropylamino-6-(3-thiazolidinyl)-1,3,5-triazine]
[1]
  minimal effective concentration: 0.1 µM
toxicity, Irwin's test
  Lethal dose: 263 mg/kg
Serotonergic activity; 2.63 mg/kg i.p., counted over 30 minutes
  Average number of shakes: 5.5 ± 2.0 shakes
[2]
  Minimum potentiating dose (MPD): 0.32 µmol/L

## [O-][S+]1CCN(c2nc(NC3CC3)nc(C3CC3)n2)C1 (stereo not shown) [Compound 23, 2-Cyclopropyl-4-cyclopropylamino-6-(3-thiazolidinyl)-1,3,5-triazine S-oxide]
toxicity, Irwin's test
  Lethal dose: 156 mg/kg

## O=S1(=O)CCN(c2nc(NC3CC3)nc(C3CCC3)n2)CC1 [Compound 26, 2-Cyclobutyl-4-cyclopropylamino-6-thiomorpholino-1,3,5-triazine S,S-dioxide hydrochloride]
[1]
  minimal effective concentration: 1 µM
toxicity, Irwin's test
  Lethal dose: 201.5 mg/kg
Serotonergic activity; 1.15 mg/kg i.p., counted over 30 minutes
  Average number of shakes: 11.8 ± 4.3 shakes
[2]
  Minimum potentiating dose (MPD): 0.32 µmol/L
[3]
  ED50: 0.03 µmol/kg

## C1CCC(c2nc(NC3CC3)nc(N3CCOCC3)n2)C1 [Compound 8]
[1]
  minimal effective concentration: 1 µM
[4]
  ED50: 0.3 µmol/kg
[5]; [8]
  ED30: 4 µmol/kg
[5]; [9]
  ED30: 4 µmol/kg
toxicity, Irwin's test
  Lethal dose: 326 mg/kg
[2]
  Minimum potentiating dose (MPD): 10.0 µmol/L
[3]
  ED50: 0.1 µmol/kg
[6]
  ED50: 0.2 µmol/kg

## O=S1(=O)CCN(c2nc(NC3CC3)nc(C3CC3)n2)CC1 [Compound 20, 2-Cyclopropyl-4-cyclopropylamino-6-thiomorpholino-1,3,5-triazine S,S-dioxide]
[1]
  minimal effective concentration: 1 µM
[4]
  ED50: 0.4 µmol/kg
[5]; [8]
  ED30: 1 µmol/kg
[5]; [9]
  ED30: 0.5 µmol/kg
toxicity, Irwin's test
  Lethal dose: 185 mg/kg
Serotonergic activity; 0.99 mg/kg i.p., counted over 30 minutes
  Average number of shakes: 13.6 ± 2.3 shakes
[2]
  Minimum potentiating dose (MPD): 0.32 µmol/L
[3]
  ED50: 0.03 µmol/kg
[7]
  Minimum potentiating dose (MPD): 0.1 µmol/L
[6]
  ED50: 0.1 µmol/kg

## O=S1(=O)CCN(c2nc(NC3CC3)nc(C3CC3)n2)C1 [Compound 22, 2-Cyclopropyl-4-cyclopropylamino-6-(3-thiazolidinyl)-1,3,5-triazine S,S-dioxide]
[1]
  minimal effective concentration: 0.1 µM
toxicity, Irwin's test
  Lethal dose: 295 mg/kg
Serotonergic activity; 0.95 mg/kg i.p., counted over 30 minutes
  Average number of shakes: 8.1 ± 1.7 shakes
[2]
  Minimum potentiating dose (MPD): 0.032 µmol/L

## C1CN(c2nc(NC3CC3)nc(C3CC3)n2)CCS1 [Compound 18, 2-Cyclopropyl-4-cyclopropylamino-6-thiomorpholino-1,3,5-triazine]
[1]
  minimal effective concentration: 0.1 µM
[5]; [8]
  ED30: 1 µmol/kg
[5]; [9]
  ED30: 1 µmol/kg
toxicity, Irwin's test
  Lethal dose: 277 mg/kg
Serotonergic activity; 0.88 mg/kg i.p., counted over 30 minutes
  Average number of shakes: 10.6 ± 3.0 shakes
[2]
  Minimum potentiating dose (MPD): 1.0 µmol/L
[3]
  ED50: 0.003 µmol/kg
[7]
  Minimum potentiating dose (MPD): 0.1 µmol/L

## CC1(c2nc(NC3CC3)nc(N3CCOCC3)n2)CC1 [Compound 24, 2-Cyclopropylamino-4-(1-methylcyclopropyl)-6-morpholino-1,3,5-triazine]
[1]
  minimal effective concentration: 0.032 µM
toxicity, Irwin's test
  Lethal dose: 825 mg/kg
Serotonergic activity; 2.75 mg/kg i.p., counted over 30 minutes
  Average number of shakes: 6.1 ± 2.3 shakes
[2]
  Minimum potentiating dose (MPD): 0.32 µmol/L
[3]
  ED50: 0.04 µmol/kg

## O=C1CN(c2nc(NC3CC3)nc(C3CC3)n2)C1 [Compound 17]
[1]
  minimal effective concentration: 3.2 µM
[4]
  ED50: 0.2 µmol/kg
[5]; [8]
  ED30: 1 µmol/kg
[5]; [9]
  ED30: 1 µmol/kg
toxicity, Irwin's test
  Lethal dose: 281.5 mg/kg
Serotonergic activity; 2.8 mg/kg i.p., counted over 30 minutes
  Average number of shakes: 10.5 ± 2.9 shakes
[2]
  Minimum potentiating dose (MPD): 1.0 µmol/L
[3]
  ED50: 0.1 µmol/kg
[7]
  Minimum potentiating dose (MPD): 0.32 µmol/L
[6]
  ED50: 0.2 µmol/kg

## N[C@@H](Cc1c[nH]c2ccc(O)cc12)C(=O)O [5-HTP/carbidopa, 5-hydroxytryptophan, reference compound]
Serotonergic activity; 5-HTP 100.0 mg/kg i.p. after carbidopa 25 mg/kg i.p., measured 90 to 120 minutes after 5HTP
  Average number of shakes: 4.7 ± 1.5 shakes
Serotonergic activity; 5-HTP 200.0 mg/kg i.p. after carbidopa 25 mg/kg i.p., measured 90 to 120 minutes after 5HTP
  Average number of shakes: 19.6 ± 3.0 shakes

## CC1CC1c1nc(NC2CC2)nc(N2CCOCC2)n1.Cl (stereo not shown) [Compound 25, 2-Cyclopropylamino-4-(2-methylcyclopropyl)-6-morpholino-1,3,5-triazine hydrochloride]
[1]
  minimal effective concentration: 0.032 µM
toxicity, Irwin's test
  Lethal dose: 99.7 mg/kg
Serotonergic activity; 1.0 mg/kg i.p., counted over 30 minutes
  Average number of shakes: 19.6 ± 5.0 shakes
[2]
  Minimum potentiating dose (MPD): 0.032 µmol/L
